Experimental data from US9642889B2, “Macrocyclic inhibitors of Flaviviridae viruses” (Selcia Limited, priority 2012, dated 2017).
Read-outs that look alike come from different tables or passages of the source.

How the values were obtained:
[1] = rcm bond; 22-membered ring; Hoveyda-Grubbs II; 1,2-dichloroethane; 3.01 mM; 80.0 °C; 2 steps
[2] = rcm bond
[3] = system: Huh-7 HCV replicon cells (1b replicon); assay: anti-HCV activity in Huh-7 cell line harboring a HCV replicon (luciferase readout); format: cell-based; settings: Hepatitis C virus; for EC50: Huh-7, 72 h, inhibition of viral replication, Huh-7 HCV replicon cells, 3 days, read-out: EC50; for inhibition at 1 µM: Huh-7, read-out: Replicon 1b % inhibition at 1 μM, 1b replicon, 1 μM compound
cyclophilin A = cyclophilin A (Homo sapiens, UniProt P62937); assay: Cyclophilin A TR-FRET competitive binding assay; settings: competition with CsA-Cy5 for His-tagged CypA, two-hour incubation
Sequence of cyclophilin A (P62937 whole entry, species assumed): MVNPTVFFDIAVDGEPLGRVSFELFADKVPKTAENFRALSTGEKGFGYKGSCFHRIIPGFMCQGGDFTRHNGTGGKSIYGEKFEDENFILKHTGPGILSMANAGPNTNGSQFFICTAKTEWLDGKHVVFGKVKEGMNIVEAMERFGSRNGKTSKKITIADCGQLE
Description: Cyclophilin A TR-FRET Competitive Binding Assay
Inhibitor potency was measured using a competitive binding assay with a time-resolved fluorescence resonance energy transfer (TR-FRET) readout. […] An IC50 value was calculated using a four-parameter logistic fit.

[4] = rcm bond; 22-membered ring; Hoveyda-Grubbs II; 1,2-dichloroethane; 80.0 °C

Compound: CC(C)[C@@H]1OC(=O)[C@H](C)[C@H](O[Si](C)(C)C(C)(C)C)CC/C=C/c2cccc(c2)[C@@H](C)NC(=O)[C@@H]2CCCN(N2)C(=O)[C@H](C)NC1=O
- ring closure, isolated yield [1]: 16%
- ring closure, yield of all isomers ([2]; from C=CCC[C@@H](O[Si](C)(C)C(C)(C)C)[C@@H](C)C(=O)O[C@H](C(=O)N[C@@H](C)C(=O)N1CCC[C@@H](C(=O)N[C@H](C)c2cccc(C=C)c2)N1)C(C)C, Hoveyda-Grubbs 2nd generation catalyst, 1,2-dichloroethane, 3.01 mM, 80.0 °C, 2.0 h, 2 steps): 16%

Compound: CC(C)[C@@H]1OC(=O)CCCC/C=C/c2cccc(c2)[C@@H](C)NC(=O)[C@@H]2CCCN(N2)C(=O)[C@H](C)NC1=O [Compound 8, (E)-(2R,5S,11S,14S)-14-Isopropyl-2,11-dimethyl-15-oxa-3,9,12,28-tetraaza-tricyclo[21.3.1.1*5,9*]octacosa-1 (27),21,23,25-tetraene-4,10,13,16-tetraone]
- EC50 [3]: < 1000 nM
- inhibition at 1 µM [3]: 95%
- IC50 (cyclophilin A): < 100 nM
- ring closure, yield after HPLC [4]: 15%
- ring closure, yield of all isomers ([2]; from C=CCCCCC(=O)O[C@H](C(=O)N[C@@H](C)C(=O)N1CCC[C@@H](C(=O)N[C@H](C)c2cccc(C=C)c2)N1)C(C)C, Hoveyda-Grubbs 2nd generation catalyst, 1,2-dichloroethane, 80.0 °C, 2.3 h): 15%

Compound: CC(C)[C@@H]1OCCCC=Cc2cc3cc(ccc3cn2)[C@@H](C)OC(=O)[C@@H]2CCCN(N2)C(=O)[C@H](C)NC1=O
- ring closure, yield of all isomers ([2]; from C=CCCCO[C@H](C(=O)N[C@@H](C)C(=O)N1CCC[C@@H](C(=O)O[C@H](C)c2ccc3cnc(C=C)cc3c2)N1)C(C)C, Hoveyda-Grubbs 2nd Generation Catalyst, toluene, 3.0 mM, 100.0 °C, 0.58 h): 35%

Compound: CO[C@@H]1C=Cc2cc3cc(ccc3cn2)[C@@H](C)NC(=O)[C@@H]2CCCN(N2)C(=O)[C@H](C)NC(=O)[C@H](C(C)C)OC(=O)[C@@H]1C
- ring closure, yield of all isomers ([2]; from C=Cc1cc2cc([C@@H](C)NC(=O)[C@@H]3CCCN(C(=O)[C@H](C)NC(=O)[C@@H](OC(=O)[C@H](C)[C@@H](/C=C/C)OC)C(C)C)N3)ccc2cn1, Hoveyda-Grubbs 2nd generation, toluene, 2.98 mM, 125.0 °C, 6.0 h): 1%

Compound: CC(C)[C@H]1C(=O)N[C@@H](C)C(=O)N2CCC[C@H](N2)C(=O)N[C@H](C)c2cccc(c2)/C=C/CCCCC(=O)N1C [Compound 17, (E)-(2R,5S,11 S,14S)-14-Isopropyl-2,11,15-trimethyl-3,9,12,15,28-pentaaza-tricyclo[21.3.1.1*5,9*]octacosa-1 (27),21,23,25-tetraene-4,10,13,16-tetraone]
- EC50 [3]: 1100 to 10000 nM
- inhibition at 1 µM [3]: 39%
- IC50 (cyclophilin A): 101 to 1000 nM
- ring closure, yield of all isomers ([2]; from C=CCCCCC(=O)N(C)[C@H](C(=O)N[C@@H](C)C(=O)N1CCC[C@@H](C(=O)N[C@H](C)c2cccc(C=C)c2)N1)C(C)C, Hoveyda-Grubbs 2nd generation catalyst, 1,2-dichloroethane, 3.33 mM, 80.0 °C, 3.0 h): 43%

Compound: CO[C@@H]1CCC=Cc2cccc(c2)[C@@H](C)NC(=O)[C@@H]2CCCN(N2)C(=O)[C@H](C)NC(=O)[C@H](C(C)C)OC(=O)[C@@H]1C
- ring closure, yield of all isomers ([2]; from C=CCC[C@@H](OC)[C@@H](C)C(=O)O[C@H](C(=O)N[C@@H](C)C(=O)N1CCC[C@@H](C(=O)N[C@H](C)c2cccc(C=C)c2)N1)C(C)C, Hoveyda-Grubbs 2nd generation, 1,2-dichloroethane, 2.96 mM, 85.0 °C, 5.0 h): 32%
